Residues, ends and D or L forms follow the SMILES beside them. *: point of attachment. Cbz = O=C(OCc1ccccc1)*; Boc = CC(C)(C)OC(=O)*
melting point | SMILES
132 to 133 °C | CCN(CCO)C(=O)C1=C(C(=O)Nc2cc(OC3CCCC3)c(Cl)cc2F)CCCC1
276 °C | O=C(O)Cn1cc2c(=O)n3c(nc2n1)SCC3
151 to 152 °C | CC(=O)Nc1ccccc1OC(CCc1ccc(Cl)cc1)Cn1ccnc1 (stereo unspecified)
135 to 136 °C | CC(C(=O)O)c1ccc(C=C2CCCCC2O)cc1 (stereo unspecified)
145 °C | CCOC(=O)C1=C(COCCNC(=O)N2CCNC2=O)NC(C)=C(C(=O)OC)C1c1ccccc1Cl (stereo unspecified)
161 to 163 °C | COc1cc(CN2C(=O)C3(COc4cc5c(cc43)OCCO5)c3ccccc32)ccc1F (stereo unspecified)
195 to 197 °C | CCCCCCC(=O)Nc1ncnc(NC2CC2)n1
117 to 118 °C | Cc1cc(-n2cncn2)c2c(Cl)ccc(C)c2n1
147 °C | CC(C)(C=O)C(O)(COc1cccc2ccccc12)Cn1ccnc1 (stereo unspecified)
170 to 172 °C | CNC(=O)c1ccccc1Nc1nc(Nc2ccc3c(c2)CCCCN3C)ncc1Cl
124 to 126 °C | CCc1nc2ccccc2c(=O)n1CCNc1ccc(SC(C)(C)C(=O)O)cc1
126 to 127 °C | N#CCOc1ccc2cc(Br)ccc2c1Cl
225 to 233 °C | NC(=O)c1sc2nccc(N3CCN(C(c4ccccc4)c4ccccc4)CC3)c2c1N
175 to 178 °C | CCc1ccc2c(O)c(C(=O)O)cnc2c1
148 °C | CS(=O)(=O)NC(=O)C1(CCCCCCCCCCCCC2(C(=O)NS(C)(=O)=O)CC2)CC1
238 to 240 °C | O=C(CNc1ccc(F)c(F)c1)Nc1c(Cl)ccc2nc(N3CC[C@@H](O)C3)ccc12
216 to 217 °C | Cc1ccc(-c2ccc(F)cc2)cc1-c1c(O)c(C)nn(C)c1=O
159 to 160 °C | Clc1nc(-c2ncccn2)nc(Cl)c1-c1cccs1
144 to 182 °C | COCCCn1nnnc1-c1cc(-c2cccc(C(F)(F)F)c2)c(O)cc1O
121 to 122 °C | COC(=O)C=CC(C)C1=CCC2C3CC=C4CC(OC(C)=O)CCC4(C)C3CCC12C (stereo unspecified)
114 °C | OC(c1ccccc1)(c1ccc(Oc2ccccc2)cc1)c1ccccn1 (stereo unspecified)
80 to 81 °C | C[C@H](CO)Cn1c2ccccc2c2ccccc21
> 350 °C | Cc1c(CC(=O)O)c(=O)oc2cc(O)c(O)c([N+](=O)[O-])c12

melting point | SMILES
106 °C | COc1c(C)cc2c(c1C)C[C@@H]1c3cc(C(C)C)ccc3N[C@H]21 (relative stereo)
265 to 266 °C | O=C(O)c1cccc(-c2cc(-c3ccc(Cl)cc3)no2)c1
302 to 306 °C | COc1cccc2c1nc(C(F)F)n2-c1nc(Nc2ccc(NS(C)(=O)=O)nc2)nc(N2CCOCC2)n1
189 to 191 °C | FC(F)(F)c1ccc(Cl)cc1CN1CCNc2ncc(I)cc21
100 to 105 °C | C(=Cc1ccc(-c2ccc(OCCCN3CCCCC3)cc2)cc1)CN1CCCCC1
90 to 91 °C | CCOC(=O)COc1nc(-c2ccccc2)nc(C)c1C
171 to 173 °C | O=C1CCOc2ccc([N+](=O)[O-])cc21
78 to 80 °C | CON(Cc1cccc(-c2ccc(Cl)cc2)c1)C(=O)c1cn(C)nc1C(F)F
190 to 194 °C | CC(C)C(=O)N1CCC(c2nc3cc(-c4ccc(-n5cnnn5)cc4F)ccc3o2)CC1
146 to 149 °C | Cc1ccccc1C1=NOC2(C1)OC(=O)c1ccccc12 (stereo unspecified)
129 to 131 °C | CCOC(=O)c1c(C)nn(-c2ccc(F)cc2)c1N
266 to 269 °C | CS(=O)(=O)c1ccc(-c2nc(C(F)(F)F)nc(NN)c2-c2ccc(Cl)cc2)cc1
130 to 132 °C | NC(=S)Nc1cc[nH]n1
65 °C | CN1C(=O)Cc2cc(CBr)cnc21
157 to 161 °C | CC(=O)OCc1ccc2oc(=O)c(C(=O)Oc3cc(F)ccc3[N+](=O)[O-])cc2c1
133 to 135 °C | O=C1NC(=O)C(c2ccsc2)O1 (stereo unspecified)
112 to 114 °C | CC(C)(C)OC(=O)NCC1CNC1
134 to 136 °C | CC(C)(C)OC(=O)CN(Cc1ccccc1)S(=O)(=O)c1ccc2c(Cl)cnc(Cl)c2c1
62.6 to 64 °C | [N-]=[N+]=C(C(=O)CCc1ccccc1)C(=O)CCc1ccccc1
119 to 120 °C | CN(C)CC=CC(=O)Nc1cc2c(Nc3cc(Cl)c(Cl)cc3F)ncnc2cc1OCCOCCOCCOCCF
240 to 245 °C | CCNC(=O)NS(=O)(=O)c1ccccc1-c1ccc(Cn2c(CC)nc3c(C)ccnc32)cc1
221 to 223 °C | COc1cccc2c1nc(C(F)F)n2-c1nc(Nc2cccnc2)nc(N2CCOCC2)n1
215 °C | CC(C)(C)OC(=O)NCCn1cnc2c(N)nc3ccccc3c21

melting point | SMILES
235 to 236 °C | COCCOc1cc(NS(=O)(=O)c2ccccn2)c2[nH]c(C3=NCC(CN4CCS(=O)CC4)S3)cc2c1 (stereo unspecified)
52 °C | CC(C)NCC(O)COc1ccc(CCSCC2CCC2)cc1 (stereo unspecified)
211 °C | O=C(Cc1noc2ccccc12)N[C@H]1CC[C@H](CCN2CCN(c3nccc4c3OCC4)CC2)CC1
115 to 116 °C | COc1cccc(CN2Cc3cc(OC)c(OCc4ccccc4)cc3C(O)C2)c1 (stereo unspecified)
160 to 164 °C | O=C(O)c1cc[nH]c1Sc1ccc(Cl)cc1Cl
210 to 211 °C | COc1ccc(-c2nccc3c(CC(=O)O)cccc23)cc1
95.4 °C | O=C(c1ccc(Oc2ccc(F)cc2)nc1)N1CCCNCC1
127 to 128 °C | COc1ccc(CNC(=O)c2ccc3n2Cc2ccccc2N(C(=O)c2ccc(-c4ccccc4C)c(C)c2)C3)cc1
86 to 87 °C | CCOC(=O)CCCN1CCN(C2=Nc3ccccc3Oc3ccc(Cl)cc32)CC1
78 °C | COc1ccc(C(=O)Nc2ccc3ccc(OC(C)C)nc3n2)cc1
132 to 134 °C | Cc1cccc(NC(c2ccc(OC(C)C)cc2)c2ccc3cccnc3c2O)n1 (stereo unspecified)
152 to 153 °C | COc1ccc(S(=O)(=O)Nc2ccc(N(C)C)nc2Nc2ccccc2)cc1
106 to 108 °C | CC(=O)OC1COC(SCCCCCCOC2CCC3(C)C(=CCC4C3CCC3(C)C(C(C)CCCC(C)C)CCC43)C2)C(OC(C)=O)C1OC(C)=O (stereo unspecified)
213 to 214 °C | CSc1ccc(C2=NNC(=O)CC2c2ccccc2)cc1 (stereo unspecified)
212 °C | CCc1nnc2n1N=C1c3cc(OC)c(OC)cc3CC1S2 (stereo unspecified)
189 to 191 °C | COc1ccc(Nc2cc(C)nc(SCC(N)=NO)n2)cc1
93 to 95 °C | C=CCSC(=S)c1cc(C(C)(C)C)c(O)c(C(C)(C)C)c1
105 to 107 °C | c1ccc(-c2nc3ccccc3o2)nc1
144 to 146 °C | COc1ccc(CN(C)CCCc2ccc(NC(=O)c3cccc4c(=O)c5cccc(OC)c5sc34)cc2)cc1OC
187 to 188 °C | CC(C)CC1(C(CCN2C(=O)c3ccc(N)cc3C2=O)C(=O)NO)CCN(CCc2ccccc2)C1=O (stereo unspecified)
125 to 127 °C | C=CCOC(=O)Cc1cccc(NC(=O)NCNC(=O)c2ccccc2C(=O)c2ccccc2)c1
217 to 220 °C | CC(C)(C)c1nc(C(=O)c2ncc[nH]2)nc(C(C)(C)C)c1O
66 to 67 °C | CSC(SC)=C1C(=O)CCCC1=O

melting point | SMILES
147 to 149 °C | COC(=O)C(O)C(NCc1ccccc1)c1ccc([N+](=O)[O-])cc1 (stereo unspecified)
107 to 108 °C | COc1ccc2c(c1)N(CCNC(C)=O)CCO2
180 to 182 °C | COc1ccc2c(c1)CN(C(=O)CN1CCOCC1)N=C2Cc1c(Cl)cncc1Cl
174 to 176 °C | O=C1CCCc2nc3ccccc3c(NCc3ccc(C(F)(F)F)cc3)c21
112 to 114 °C | CCC(CC)N1COCc2c1cc(C)nc2Oc1c(C)cc(C)cc1C
275 to 277 °C | COc1cc(OC)c2c(=O)[nH]c(-c3ccc(CN4CCN(C)CC4)cc3)nc2c1
134 °C | CCOC(=O)c1c(N2CCN(C(=O)c3cccs3)CC2)c2cccnc2n(CCN(C)C)c1=O
168 to 171 °C | O=C1CN(S(=O)(=O)CC(Cc2ccccc2)C(=O)O)CCN1 (stereo unspecified)
234 to 235 °C | O=[N+]([O-])c1ccc(-c2nn(-c3ccccn3)cc2C=NO)o1
130 °C | CSc1cccc(NC(=O)NCC(=O)N2[C@@H](C(=O)OC(C)(C)C)C[C@H](C(=O)O)[C@H]2c2ccccc2)c1 (racemic)
135 to 136 °C | CCOC(=O)C(CC(C)C)NC(=O)C(Cc1ccccc1)NC(=O)C(CCCCNC(=O)OCc1ccccc1)NC(=O)OC(C)(C)C (stereo not drawn) (Boc-Lys(Cbz)-Phe-Leu-OEt; configuration not given here)
68 to 69 °C | C=Cc1ccc(OCc2ccccc2)cc1
217 to 224 °C | CNCCCNc1ccc2c(NC(=O)CC34CC5CC(CC(C5)C3)C4)c(C)ccc2n1
291 to 299 °C | COc1ccc(-c2[nH]c3cn[nH]c(=O)c3c2Cl)cc1OC(C)C
156 °C | Clc1ccc2nc(NCC3CCN(CC4COc5ccccc5O4)CC3)sc2c1 (stereo unspecified)
140 °C | CN(c1ccc(O)cc1)c1cc2ccc(Cl)cc2cn1
178 to 179 °C | O=C1CCCC2=C1OC(CC(=O)c1ccccc1)(c1ccccc1)C=C2c1ccccc1 (stereo unspecified)
120 to 122 °C | CC(=O)Oc1ccc(C(=O)NOCc2ccccc2)cc1
173 to 175 °C | CCOC(=O)c1ccc(NC(=O)C=C(c2ccccc2)c2ccc(Cl)cc2)cc1
129 to 130 °C | COC1(c2cccc(OCc3ccc(-n4ccnc4)cc3)c2)CCOCC1
198 to 199 °C | O=C1NCc2c(-c3ccccc3)cccc2N1Cc1ccccc1
91 to 92 °C | Clc1ccc(C(c2ccc(Cl)cc2)n2ncnn2)cc1
142 to 143 °C | CCCCNC(=O)C(C)n1nnc2ccc(Oc3cc(F)c(C(F)(F)F)c(Cl)c3)cc21 (stereo unspecified)

SMILES | melting point
CC(=O)Nc1cccc(NC(=O)NC2N=C(c3ccccc3F)c3ccccc3N(CC(=O)N3CC4CCC(CC4)C3)C2=O)c1 (racemic) | 207 to 215 °C
CNC(=S)N(Cc1ccc(Cl)nc1)CC(F)(F)F | 98 to 100 °C
CN1C=CCC2C1N2S(=O)(=O)c1ccc(N)cc1 (stereo unspecified) | 188 to 190 °C
Cc1c2c(cn1C)NC(=O)C(O)N=C2c1ccccc1 (stereo unspecified) | 243 °C
